Tests used:
submissive rats [1] = settings: cited from earlier work; for submissive behavior: treatment of the submissive subject for 3 weeks
dominant rats = settings: administered to dominant rats; cited from earlier work
submissive rats [2] = assay: Reduction of Submissive Behavior Model (RSBM) of depression, dominant-submissive rat food competition test; type: in vivo, Sprague-Dawley rats
From the text: In this study, the effects of COMPOUND #7 on dominant or submissive behavior in pairs of rats competing for food are examined. It has been shown that anti-manic drugs, including anticonvulsants, decrease dominance and antidepressant drugs reduce submissiveness. This model uses dominant behavior as a model of mania and submissive behavior as a model of depression. The dominance and submissiveness is defined in a competition test and measured as the relative success of two food-restricted rats to gain access to a feeder. Rats are randomly paired and placed in an apparatus allowing them to compete for a food reward. The dominant-submissive relationship develops over a 2-week period. The submissive or dominant animals in pairs selected after 2 weeks of training were treated orally […] (b.i.d.) with COMPOUND #7 at 3 or 30 mg/kg for 5 weeks. The partner of the drug-treated animal was treated with vehicle.
The objective of this study was to determine if COMPOUND #7 is active in the Reduction of Submissive Behavior Model (RSBM) of depression and the Reduction of Dominant Behavior Model (RDBM) of mania. Measurements were made at two doses (3 and 30 mg/kg) after oral twice a day (b.i.d.) administration. The effect of the drug in the RSBM was compared to the effect of fluoxetine (10 mg/kg) and vehicle (0.5% methylcellulose). The effect of the drug in the RDBM was compared with the effect of lithium (100 mg/kg) and vehicle (0.5% methylcellulose). The endpoints measured were the development of a significant reduction of submissive or dominant behavior and its time of onset.
The DSR developed by two rats competing for food uses the apparatus in FIG. 1. The methodology and equipment are described in several publications. (See, Malatynska E, Goldenberg R, Shuck L, Haque A, Zamecki P, Crites G, Schindler N, Knapp R J. Reduction of submissive behavior in rats: a test for antidepressant drug activity. Pharmacology 2002; 64:8; Malatynska E, Rapp R, Crites G. Dominant behavior measured in a competition test as a model of mania. In: International Behavioral Neuroscience Society Meeting, ed. IBNSCapri, Italy, 2002, p 26.; Bonnet U. Moclobemide: therapeutic use and clinical studies. CNS Drug Rev 2003; 9:97; Danysz W, Plaznik A, Kostowski W, Malatynska E, Jarbe T U, Hiltunen A J, Archer T. Comparison of desipramine, amitriptyline, zimeldine and alaproclate in six animal models used to investigate antidepressant drugs. Pharmacol Toxicol 1988; 62:42; Knapp R J, Goldenberg R, Shuck C, Cecil A, Watkins J, Miller C, Crites G, Malatynska E. Antidepressant activity of memory-enhancing drugs in the reduction of submissive behavior model. Eur J Pharmacol 2002; 440:27; Kostowski W, Malatynska E, Plaznik A, Dyr W, Danysz W. Comparative studies on antidepressant action of alprazolam in different animal models. Pol J Pharmacol Pharm 1986; 38, 471; Malatynska E, De Leon I, Allen D, Yamamura Hi. Effects of amitriptyline on GABA-stimulated ^36Cl^− uptake in relation to a behavioral model of depression. Brain Res Bull 1995; 37:53; Malatynska E, Kostowski W. The effect of antidepressant drugs on dominance behavior in rats competing for food. Pol J Pharmacol Pharm 1984; 36:531; Malatynska E, Kostowski W. Desipramine antagonizes clonidine-induced suppression of dominance in rats: possible involvement of amygdaloid nuclei. Pol J Pharmacol Pharm 1988; 40:357).
In the experiments described in this report Sprague-Dawley rats weighing 160 to 180 g were used. Testing for the development of a DSR between paired rats begins with the random assignment of rats into pairs. Rats from pairs are housed separately between test sessions with other animals in groups of four. The animals are food-deprived overnight with free access to water.
The test involves placing each member of a pair in opposite chambers of the testing apparatus. These chambers are connected through a narrow tunnel with a small container of sweetened milk at the center. […]

SMILES	submissive behavior (submissive rats [1])	competitive behavior of dominant rats (dominant rats)	other results
CNCCCN1c2ccccc2CCc2ccccc21 [desipramine]	reduced submissive behavior		effect on submissive behavior after cessation of treatment (submissive rats [1]; after cessation of treatment): attenuated
Clc1cccc(Cl)c1N=C1NCCN1 [clonidine]		significantly reduced competitive behavior	
CCCC(CCC)C(=O)[O-].[Na+] [sodium valproate]		significantly reduced competitive behavior	
NC(=O)N1c2ccccc2C=Cc2ccccc21 [carbamazepine]		significantly reduced competitive behavior	
CC(N)Cc1ccccc1 (stereo not shown) [amphetamine, reference compound]			effect of treatment of submissive rats (psychostimulant) (submissive rats [2]; unpublished observation): ineffective
CN(C)CCCN1c2ccccc2CCc2ccccc21 [imipramine]	reduced submissive behavior		
CN1C(=O)CN=C(c2ccccc2)c2cc(Cl)ccc21 [diazepam]			effect of treatment of submissive rats (anxiolytic) (submissive rats [1]; Pharmacology 2002, 64:8): ineffective
CNCCC(Oc1ccc(C(F)(F)F)cc1)c1ccccc1 (stereo not shown) [fluoxetine, reference compound]	reduced submissive behavior		onset of significant effect on submissive rats (time of treatment) (submissive rats [2]; 10 mg/kg i.p. once a day, previous experimental set): 3 weeks
